# Source: publication PMC3716919, “Oxidative stress disruption of receptor-mediated calcium signaling mechanisms” (Journal of Biomedical Science, 2013)
# Where “and” joins values, the source holds several entries; their conditions need not be identical. Equal values may be shown once. Entries after “also recorded” stand apart in the source; their conditions may differ.
# How the values were obtained:
# [1] = molecular target: T1, human M3 muscarinic acetylcholine receptor (Homo sapiens, UniProt P20309); format: cell-based
# T1 construct: CHO cells expressing the human M3 muscarinic acetylcholine receptor open reading frame; host or cells: CHO cells, stably transfected (CHO-M3)
# T1 sequence (P20309 whole entry): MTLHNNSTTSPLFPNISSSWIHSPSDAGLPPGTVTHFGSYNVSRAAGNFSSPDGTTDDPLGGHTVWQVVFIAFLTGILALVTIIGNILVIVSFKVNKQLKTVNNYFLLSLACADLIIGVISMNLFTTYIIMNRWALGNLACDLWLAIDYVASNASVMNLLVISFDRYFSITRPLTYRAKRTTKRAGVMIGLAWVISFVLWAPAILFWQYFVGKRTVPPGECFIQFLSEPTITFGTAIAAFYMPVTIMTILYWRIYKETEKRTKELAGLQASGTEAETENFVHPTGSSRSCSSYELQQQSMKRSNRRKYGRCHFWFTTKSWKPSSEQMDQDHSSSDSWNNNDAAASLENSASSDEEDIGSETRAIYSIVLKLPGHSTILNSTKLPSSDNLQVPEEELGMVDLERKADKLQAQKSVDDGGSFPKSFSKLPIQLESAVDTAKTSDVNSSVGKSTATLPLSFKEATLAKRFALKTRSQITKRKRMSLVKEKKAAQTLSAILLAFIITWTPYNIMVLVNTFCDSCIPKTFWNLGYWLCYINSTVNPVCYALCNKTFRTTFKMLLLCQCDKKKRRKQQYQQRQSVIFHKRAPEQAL
# [2] = test system: CHO-M3 cells; assay: Resting cytosolic calcium concentration in CHO-M3 cells (fura-2 imaging); format: cell-based, Chinese hamster
# [3] = test system: store-operated calcium entry (SOCE) channels; assay: Store-operated calcium entry (SOCE) in CHO-M3 cells (fura-2 imaging); format: cell-based, Chinese hamster; conditions: for initial rate of rise of [Ca2+]i in response to reintroduction of calcium: control cells; for acute effect of direct SOCE channel inhibitors on SOCE: added after activation of SOCE by 10 μM carbamylcholine, honokiol 30 μM in insert, unpublished observations
# [4] = test system: CHO-M3 cells; assay: Endoplasmic reticulum luminal calcium (Mag-Fura 2, saponin-permeabilized cells); format: cell-based, Chinese hamster
# Protocol: The concentration of Ca^2+ in the lumen of the ER ([Ca^2+]L) was measured using the low-affinity calcium indicator, Mag-Fura 2 (Molecular Probes). […] The media was removed and the cells rinsed with BSS and then incubated with Mag-Fura 2 (50 μM) for 60 minutes at room temperature. Mag-Fura 2 was removed and the cells incubated for an additional 30 minutes. Prior to imaging, the BSS was removed and replaced with Ca^2+- and Mg^2+-free BSS. During imaging, the cells were permeabilized by exposure to 0.005% saponin for 70 seconds to release cytosolic calcium. This caused a rapid decrease in total fluorescence intensity following excitation at both 340 and 380 nm, but elimination of the pervasive cytosolic signal allowed detection of ER lumen calcium levels 30 seconds after saponin addition. Following stabilization of the signal (≈100 sec), R340/380 was averaged for 10 seconds in approximately 20 cells on each plate.
# [5] = test system: CHO-M3 cells; assay: Reactive oxygen species, DCFDA fluorescence; format: cell-based, Chinese hamster; conditions: 90 min exposure
# Protocol: The concentration of reactive oxygen species (ROS) was determined by the […] of 2′,7′-dichlorodihydrofluorescein (DCFDA; Sigma). CHO-M3 cells were plated on a 96 well plate with opaque walls at a density of 30,000 cells/well, and incubated overnight in phenol red-free media. Following a 90 min exposure to tBHP, the media was removed and the cells were washed with BSS. DCFDA (100 μl of a 40 μM solution) was added, and the plate was incubated for 1 h before measuring fluorescence at 485 nm excitation/520 nm emission using a FLUOstar plate reader.
# [6] = molecular target: T2, human M3 muscarinic receptor (Homo sapiens, UniProt P20309); format: binding
# T2 construct: CHO cells expressing the human M3 muscarinic acetylcholine receptor open reading frame; host or cells: CHO cells, stably transfected (CHO-M3)
# T2 sequence (P20309 whole entry): as above
# Protocol: (§1) In some experiments, the cells were exposed to 2 mM tBHP for 90 min before harvesting. Binding was determined by filtering the suspension through glass fiber filters (1 μm pore size) and measuring the amount of radioactivity bound to membranes trapped on the filters by liquid scintillation counting.
# (§2) Binding parameters were averaged from 3 independent experiments. […] 5′-Guanylyl-imidodiphosphate (Gpp(NH)p) was included in some experiments to assess receptor – G protein interactions.
# [7] = molecular target: T3, human M2 muscarinic receptor (Homo sapiens, UniProt P08172); assay: [3H]N-methylscopolamine dissociation from M2 receptors expressed in CHO cells; format: binding
# T3 sequence (P08172 1-466): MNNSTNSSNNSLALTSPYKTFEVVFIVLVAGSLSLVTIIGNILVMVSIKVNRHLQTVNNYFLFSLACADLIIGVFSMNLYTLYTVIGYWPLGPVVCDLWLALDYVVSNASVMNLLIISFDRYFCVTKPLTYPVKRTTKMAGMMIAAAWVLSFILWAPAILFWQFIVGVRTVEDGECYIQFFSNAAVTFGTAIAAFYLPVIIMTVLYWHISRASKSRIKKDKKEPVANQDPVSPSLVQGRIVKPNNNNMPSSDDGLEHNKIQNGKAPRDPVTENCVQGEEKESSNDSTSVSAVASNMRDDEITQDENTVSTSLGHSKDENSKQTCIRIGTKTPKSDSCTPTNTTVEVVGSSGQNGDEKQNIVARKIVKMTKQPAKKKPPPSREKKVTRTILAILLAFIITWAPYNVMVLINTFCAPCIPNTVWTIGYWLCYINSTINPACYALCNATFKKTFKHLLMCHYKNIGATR
# Protocol: as §1, §2
# Muscarinic receptors can also be regulated by ligands that bind to an allosteric site. […] Accordingly, we measured ligand dissociation from muscarinic receptors after exposure to 2 mM tBHP for 90 min (Figure 9).
# [8] = test system: CHO-M3 cells; assay: Thapsigargin-induced release of calcium from the ER in CHO-M3 cells (fura-2 imaging)
# [9] = 90 min exposure, extracellular calcium present
smiles,measurement,setting,value
"CC(C)(C)OO [tBHP, tert-butyl hydroperoxide]",effect on the response to M3 receptor activation,"[1]; 90 min exposure, all concentrations at or above 1 mM, no extracellular calcium",depressed
same,effect on the initial calcium response to carbamylcholine,[1]; [9],not significantly affected
same,resting [Ca2+]i after exposure (control 26 nM),"[2]; 20 mM tBHP, 90 min, 2 mM extracellular calcium",127 nM
same,resting [Ca2+]i after exposure (control 26 nM),"[2]; 0.5-10 mM tBHP, 90 min (abstract)",up to 127 nM
same,resting calcium concentration after exposure,"[2]; 90 min exposure, Figure 3a",> 100 nM
same,acute effect on calcium entry after activation of SOCE,[3]; 20 mM added at 120 sec after 10 μM carbamylcholine,did not block calcium entry
same,depression of SOCE after thapsigargin,"[3]; 90 min exposure, 0.5-5 mM, dose-dependent, calcium reintroduced (2 mM)",30-70%
same,effect on ability of thapsigargin-induced calcium release to evoke SOCE,"[3]; 90 min exposure, 0.5-20 mM, extracellular calcium present",severely compromised
same,"effect on ability to maintain the higher level of [Ca2+]i (plateau, SOCE)",[3]; [9],compromised in a concentration-dependent manner
same,decrease of [Ca2+]L,"[4]; 90 min exposure, 0.5-10 mM (abstract)",55%
same,"[Ca2+]L, % of control levels",[4]; pretreatment 1-20 mM for 90 min,≈ 55 % of control
same,threshold concentration for ROS production,[5],5 mM
same,increase in ROS,[5]; at 10 mM tBHP,up to 400%
same,effect on ability of carbamylcholine to inhibit [3H]MS binding,[6],not affected
same,effect on atropine-induced dissociation of M3 receptor-[3H]MS complex and on gallamine slowing of dissociation,[6],had no effect
same,effect on [3H]MS binding affinity,[6]; 2 mM for 90 min,not affected
same,effect on allosteric receptor actions,[7]; 2 mM for 90 min,not affected
same,inhibition of the initial thapsigargin-stimulated release of calcium from the ER,"[8]; 90 min exposure, all concentrations 0.5 to 5 mM, calcium-free medium",50%
C/C=C(/C)C(=O)O[C@H]1C(C)=C2[C@H]([C@@H]1OC(=O)CCCCCCC)[C@@](C)(OC(C)=O)C[C@H](OC(=O)CCC)[C@@]1(O)[C@H]2OC(=O)[C@@]1(C)O [thapsigargin],initial rate of rise of [Ca2+]i in response to reintroduction of calcium,[3]; after 1 μM thapsigargin in calcium-free medium,40.0 ± 5.1 nM/s
same,initial rate of rise of [Ca2+]i in response to thapsigargin,"[8]; control cells, 1 μM thapsigargin, extracellular calcium present",4.3 ± 0.6 nM/s
C=CCc1ccc(O)c(-c2ccc(O)c(CC=C)c2)c1 [honokiol],acute effect of direct SOCE channel inhibitors on SOCE,[3],immediate reductions in SOCE; also recorded: immediate reduction of SOCE
"C[N+]1(C)[C@@H]2CC(OC(=O)[C@H](CO)c3ccccc3)C[C@H]1[C@@H]1O[C@@H]12 (stereo partly shown) [[^3H]MS, [^3H]N-methylscopolamine]","k−1, rate constant for [3H]MS dissociation",[7],0.027 ± 0.004 min⁻¹ and 0.021 ± 0.006 min⁻¹
same,"k−1, rate constant for [3H]MS dissociation, with gallamine",[7],0.004 ± 0.001 min⁻¹ and 0.005 ± 0.002 min⁻¹
"Cl.O=S(=O)(c1cccc2c(Cl)cccc12)N1CCCNCC1 [ML 9, 1-(5-chloronaphthalenesulfonyl)homo piperazine hydrochloride]",acute effect of direct SOCE channel inhibitors on SOCE,[3],immediate reduction of SOCE
"Nc1nc2c(ncn2[C@@H]2O[C@H](COP(=O)(O)OP(=O)(O)NP(=O)(O)O)[C@@H](O)[C@H]2O)c(=O)[nH]1 [Gpp(NH)p, 5′-Guanylyl-imidodiphosphate]",effect on carbamylcholine inhibition curves of [3H]MS binding,[6],shifted the inhibition curves to the right
NCCOB(c1ccccc1)c1ccccc1 [2-aminoethoxydiphenylborane],effect on all calcium responses to carbamylcholine,[1],completely blocked
same,acute effect of direct SOCE channel inhibitors on SOCE,[3],immediate reductions in SOCE; also recorded: immediate reduction of SOCE
C[N+](C)(C)CCOC(N)=O.[Cl-] [carbamylcholine],initial rate of rise of [Ca2+]i in response to reintroduction of calcium,"[3]; after carbamylcholine in calcium-free medium, 2 mM calcium reintroduced",24 ± 8 nM/s
